Source: patent US20210000792A1, “METHODS FOR REDUCING OR PREVENTING CARDIOVASCULAR EVENTS IN PATIENTS WITH TYPE II DIABETES MELLITUS” (Janssen Pharmaceutica NV, priority 2017, published 2021)

Experiments:
[1] = system: men and women with type 2 diabetes and history or high risk of cardiovascular disease; assay: CANVAS clinical trial, canagliflozin 300 mg or 100 mg versus placebo; format: in vivo, human
Excerpt: (§1) Two clinical trials were completed to assess the cardiovascular safety and efficacy of canagliflozin, and how any potential benefits might balance against known risks. The complete protocols for said trials, name CANVAS and CANVAS-R, which protocols are each incorporated in their entirety herein, may be found on www.clinicaltrials.gov (more specifically at the following urls: https://clinicaltrials.gov/ct2/show/NCT01032629?term=canvas&rank=1 and https://clinicaltrials.gov/ct2/show/NCT01989754?term=canvas-r&rank=1, respectively).
(§2) All potential participants completed a 2-week, single-blind, placebo run-in period. Randomization was done centrally through an interactive web response system using a computer-generated randomization schedule prepared by the study sponsor using randomly permuted blocks. Participants in CANVAS were randomly assigned in a 1:1:1 ratio to canagliflozin 300 mg, canagliflozin 100 mg, or matching placebo, and participants in CANVAS-R were randomly assigned in a 1:1 ratio to canagliflozin or matching placebo administered at an initial dose of 100 mg daily with optional up-titration to 300 mg from week 13. Participants and all study staff were masked to individual treatment allocations until the completion of the study. Use of other background therapy for glycemic management and other risk factor control was according to best practice instituted in line with local guidelines including Renin Angiotensin System (RAS) blockade.
(§3) Post-randomization, face-to-face follow-up was scheduled for 3 visits in the first year and at 6-month intervals thereafter, with alternating telephone follow-up between face-to-face assessments. Every follow-up included inquiry about primary and secondary outcome events and serious adverse events. Urinary albumin:creatinine ratio was measured every 26 weeks in CANVAS-R, and at Week 12 and then annually in CANVAS. Serum creatinine measurement with estimation of glomerular filtration rate (eGFR) was performed at least every 26 weeks in both trials. Individuals that prematurely discontinued study treatment continued scheduled follow-up wherever possible, with extensive efforts made to obtain full outcome data for all during the final follow-up window that spanned November 2016 to February 2017.
(§4) The primary outcome was a composite of cardiovascular mortality, nonfatal myocardial infarction, or nonfatal stroke. Secondary outcomes were total mortality; cardiovascular mortality; progression of albuminuria; and the composite of cardiovascular mortality and hospitalization for heart failure. Progression of albuminuria grade was defined as a more then 30% increase in albuminuria and a switch from either normoalbuminuria to microalbuminuria or macroalbuminuria, or from microalbuminuria to macroalbuminuria. In the event that sequential testing was not significant for all then remaining outcomes were scheduled for assessment as exploratory variables in the integrated dataset.
(§5) Evaluation of total hospitalizations was also prespecified.
(§6) All major cardiovascular events, renal outcomes and deaths, plus selected safety outcomes were ratified by Endpoint Adjudication Committees. Intermediate markers of cardiovascular risk and requirement for antihyperglycemic agents were assessed to help understand the observed effects on cardiovascular and renal outcomes. Analyses of safety were of adverse events coded using the latest version of the MedDRA Dictionary. For bone fracture, the primary prespecified analysis was for low-trauma fracture events but secondary analysis of all fractures was also done. Amputations were assessed overall but numbers of cases above and below the ankle were also reported.
(§7) The primary hypothesis test was of noninferiority for the hazard ratio (HR) for the primary outcome at the margin of 1.3 for all canagliflozin versus placebo using the full integrated dataset and the intent to treat approach. […]

[2] = system: men and women with type 2 diabetes and history or high risk of cardiovascular disease; assay: CANVAS-R clinical trial, canagliflozin 100 mg with optional up-titration to 300 mg versus placebo; format: in vivo, human
Excerpt: as §1, §2, §3, §4, §5, §6, §7

[3] = vs placebo, listed as canagliflozin

What does the source list for `Cc1ccc([C@@H]2O[C@H](CO)[C@@H](O)[C@H](O)[C@H]2O)cc1Cc1ccc(-c2ccc(F)cc2)s1` [Canagliflozin, canagliflozin]?
Cardiovascular mortality, nonfatal myocardial infarction, or nonfatal stroke, n/N ([1]; canagliflozin group): 425/2888; Hospitalization for heart failure, n/N ([1]; canagliflozin group): 85/2888; Nonfatal myocardial infarction, n/N ([1]; canagliflozin group): 152/2888; Nonfatal stroke, n/N ([1]; canagliflozin group): 106/2888; Progression of albuminuria, n/N ([1]; canagliflozin group): 895/2655; Regression of albuminuria, n/N ([1]; canagliflozin group): 434/786; Total mortality, n/N ([1]; canagliflozin group): 301/2888; 40% reduction in eGFR, RRT, or renal death, hazard ratio (95% confidence interval) ([1]; vs placebo): 0.56 (0.41-0.75); 40% reduction in eGFR, RRT, renal death or macroalbuminuria, hazard ratio (95% confidence interval) ([1]; vs placebo): 0.64 (0.54-0.76); 40% reduction in eGFR, RRT, renal or CV death, hazard ratio (95% confidence interval) ([1]; vs placebo): 0.74 (0.62-0.89); Cardiovascular mortality or hospitalization for heart failure, hazard ratio (95% confidence interval) ([1]; vs placebo): 0.82 (0.67-0.99); Cardiovascular mortality, hazard ratio (95% confidence interval) ([1]; vs placebo): 0.88 (0.70-1.10); Cardiovascular mortality, nonfatal myocardial infarction, or nonfatal stroke, hazard ratio (95% confidence interval) ([1]; vs placebo): 0.88 (0.75-1.03); Hospitalization for heart failure, hazard ratio (95% confidence interval) ([1]; vs placebo): 0.77 (0.55-1.08); Nonfatal myocardial infarction, hazard ratio (95% confidence interval) ([1]; vs placebo): 0.85 (0.65-1.11); Nonfatal stroke, hazard ratio (95% confidence interval) ([1]; vs placebo): 0.97 (0.70-1.35); Progression of albuminuria, hazard ratio (95% confidence interval) ([1]; vs placebo): 0.80 (0.72-0.90); Regression of albuminuria, hazard ratio (95% confidence interval) ([1]; vs placebo): 1.56 (1.30-1.87); Total mortality, hazard ratio (95% confidence interval) ([1]; vs placebo): 0.84 (0.70-1.01); Progression of albuminuria, hazard ratio (95% confidence interval) [1, 3]: 0.80; Albumin:creatinine ratio progression, events per 1000 patient-years [2]: 99.80 per 1000 patient-years; Cardiovascular death or hospitalization for heart failure, events per 1000 patient-years [2]: 15.85 per 1000 patient-years; Cardiovascular death, events per 1000 patient-years [2]: 10.06 per 1000 patient-years; 40% reduction in eGFR, RRT, or renal death, n/N ([2]; canagliflozin group): 33/2907; 40% reduction in eGFR, RRT, renal death or macroalbuminuria, n/N ([2]; canagliflozin group): 112/2907; 40% reduction in eGFR, RRT, renal or CV death, n/N ([2]; canagliflozin group): 93/2907; Cardiovascular mortality or hospitalization for heart failure, n/N ([2]; canagliflozin group): 95/2907; Cardiovascular mortality, n/N ([2]; canagliflozin group): 61/2907; Cardiovascular mortality, nonfatal myocardial infarction, or nonfatal stroke, n/N ([2]; canagliflozin group): 160/2907; Hospitalization for heart failure, n/N ([2]; canagliflozin group): 38/2907; Nonfatal myocardial infarction, n/N ([2]; canagliflozin group): 63/2907; Nonfatal stroke, n/N ([2]; canagliflozin group): 52/2907; Progression of albuminuria, n/N ([2]; canagliflozin group): 446/2541; Regression of albuminuria, n/N ([2]; canagliflozin group): 451/893; Total mortality, n/N ([2]; canagliflozin group): 99/2907; 40% reduction in eGFR, RRT, or renal death, hazard ratio (95% confidence interval) ([2]; vs placebo): 0.71 (0.45-1.11); 40% reduction in eGFR, RRT, renal death or macroalbuminuria, hazard ratio (95% confidence interval) ([2]; vs placebo): 0.48 (0.38-0.60); 40% reduction in eGFR, RRT, renal or CV death, hazard ratio (95% confidence interval) ([2]; vs placebo): 0.82 (0.62-1.08); Cardiovascular mortality or hospitalization for heart failure, hazard ratio (95% confidence interval) ([2]; vs placebo): 0.72 (0.55-0.94); Cardiovascular mortality, hazard ratio (95% confidence interval) ([2]; vs placebo): 0.86 (0.61-1.22); Cardiovascular mortality, nonfatal myocardial infarction, or nonfatal stroke, hazard ratio (95% confidence interval) ([2]; vs placebo): 0.82 (0.66-1.01); Hospitalization for heart failure, hazard ratio (95% confidence interval) ([2]; vs placebo): 0.56 (0.38-0.83); Nonfatal myocardial infarction, hazard ratio (95% confidence interval) ([2]; vs placebo): 0.85 (0.61-1.19); Nonfatal stroke, hazard ratio (95% confidence interval) ([2]; vs placebo): 0.82 (0.57-1.18); Progression of albuminuria, hazard ratio (95% confidence interval) ([2]; vs placebo): 0.64 (0.57-0.73); Regression of albuminuria, hazard ratio (95% confidence interval) ([2]; vs placebo): 1.80 (1.55-2.09); Total mortality, hazard ratio (95% confidence interval) ([2]; vs placebo): 0.92 (0.70-1.21); Progression of albuminuria, hazard ratio (95% confidence interval) [2, 3]: 0.64
